Experimental findings from patent US9643957B2, “Heterocyclic compounds having cholesterol 24-hydroxylase activity” (TAKEDA PHARMACEUTICAL COMPANY LIMITED, priority 2012, dated 2017) are described below.

The target of this experiment is T1, human CH24H (Homo sapiens, UniProt Q9Y6A2).
T1 construct: Using Full-Length Mammalian Gene Collection No. 4819975 (Invitrogen) as a template; made in house; host or cells: FreeStyle 293-F cells, transient transfection with pcDNA3.1(+)/hCH24H; lysate supernatant, not purified
T1 sequence (Q9Y6A2 whole entry): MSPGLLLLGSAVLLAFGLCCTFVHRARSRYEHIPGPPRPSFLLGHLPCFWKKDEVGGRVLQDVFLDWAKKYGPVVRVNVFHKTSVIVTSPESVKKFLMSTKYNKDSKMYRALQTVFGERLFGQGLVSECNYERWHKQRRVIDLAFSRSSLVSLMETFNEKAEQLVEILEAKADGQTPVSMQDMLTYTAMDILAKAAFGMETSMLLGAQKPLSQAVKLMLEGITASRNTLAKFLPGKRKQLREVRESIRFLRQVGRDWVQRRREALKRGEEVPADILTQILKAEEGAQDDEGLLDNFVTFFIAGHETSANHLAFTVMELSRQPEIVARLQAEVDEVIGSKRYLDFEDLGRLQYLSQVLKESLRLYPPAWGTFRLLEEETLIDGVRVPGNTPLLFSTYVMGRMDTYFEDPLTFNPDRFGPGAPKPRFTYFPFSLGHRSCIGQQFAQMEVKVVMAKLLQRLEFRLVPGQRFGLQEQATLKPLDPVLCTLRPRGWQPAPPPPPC
Kind of experiment: Measurement of CH24H inhibitory activity (24-HC produced from [14C] cholesterol by human CH24H lysate). The conditions noted are these: 1 μM test compound, [14C] cholesterol 15 μM, 37° C. for 5 hr, read-out: Inhibitory Rate in 1 μM (%). It is filed as biochemical. Here is the method: The expression of human CH24H was performed using FreeStyle 293 Expression System (Invitrogen). […] After transfection, the cells were cultured at 37° C., 8% CO2 with shaking at 125 rpm for 2 days. The cells were collected by centrifugation, and suspended in a suspension buffer (100 mM potassium phosphate (pH 7.4), 0.1 mM EDTA, 1 mM DTT, 20% Glycerol). The suspended product was disrupted by a polytron homogenizer (manufactured by Kinematica), and centrifuged at 9000×g for 10 min, and the supernatant was collected. The collected supernatant was cryopreserved (−80° C.) as a human CH24H lysate standard product.
For the measurement of CH24H inhibitory activity, using the human CH24H lysate prepared in Experimental Example 2, the amount of 24-HC produced from cholesterol by catalytic activity of CH24H was measured in the presence of a test compound, and compared with that measured in the absence of the test compound. That is, a test compound solution at various concentrations was mixed with a reaction buffer (50 mM potassium phosphate containing 0.1% BSA and Complete, EDTA-free, pH 7.4) and human CH24H lysate. Then, [^14C] cholesterol (53 mCi/mmol specific activity, 15 μM) was added, and CH24H reaction was performed at 37° C. for 5 hr. After completion of the reaction, a quenching solution consisting of chloroform/methanol/distilled water (2:2:1 v/v) was added, and the resulting 24-HC was extracted by shaking. The extract was applied to silica gel thin layer chromatography (ethyl acetate:toluene=4:6), and the obtained ^14C-24HC fraction was measured with BAS2500 (Fujifilm Corporation).
The inhibitory rate (%) was calculated from the ratio of radioactivity in the presence of a test compound relative to the radioactivity in the absence of the test compound.
As to `CN(C(=O)C1CCN(c2cnccc2-n2cc(Cl)cn2)CC1)C1CC1` [Example 58, 1-(4-(4-chloro-1H-pyrazol-1-yl)pyridin-3-yl)-N-cyclopropyl-N-methylpiperidine-4-carboxamide], the inhibition at 1 µM was 96%.
As to `O=C(C1CCN(c2cnccc2-n2cc(Br)cn2)CC1)N1CC[C@H](F)C1` [Example 318, (1-(4-(4-bromo-1H-pyrazol-1-yl)pyridin-3-yl)piperidin-4-yl)((3S)-3-fluoropyrrolidin-1-yl)methanone], the inhibition at 1 µM is 94%.
In the case of `Cc1cnn(-c2ccncc2N2CCC3(CCN(C)C3=O)CC2)c1` [Example 82, 2-methyl-8-(4-(4-methyl-1H-pyrazol-1-yl)pyridin-3-yl)-2,8-diazaspiro[4.5]decan-1-one] it was 97%; in that of `O=C(C1CC1)N1CCN(c2cncc(F)c2-c2ccccc2)CC1` [Example 165, cyclopropyl(4-(5-fluoro-4-phenylpyridin-3-yl)piperazin-1-yl)methanone], 86%.
On to `CC1(C)CCCN1C(=O)C1CCN(c2cnccc2-n2cc(Cl)cn2)CC1` [Example 26, (1-(4-(4-chloro-1H-pyrazol-1-yl)pyridin-3-yl)piperidin-4-yl)(2,2-dimethylpyrrolidin-1-yl)methanone], for which the inhibition at 1 µM came out at 98%.
In the case of `CN(C(=O)C1CCN(c2cnccc2-n2cc(Cl)cn2)CC1)[C@H]1CCOC1` [Example 307, 1-(4-(4-chloro-1H-pyrazol-1-yl)pyridin-3-yl)-N-methyl-N-((3S)-tetrahydrofuran-3-yl)piperidine-4-carboxamide] it was 81%; in that of `O=C(C1CCN(c2cncnc2-c2ccc(F)cc2)CC1)N1CC[C@H](F)C1` [Example 286, (1-(4-(4-fluorophenyl)pyrimidin-5-yl)piperidin-4-yl) ((3S)-3-fluoropyrrolidin-1-yl)methanone], 83%.
The figure for `CN(C(=O)C1CCN(c2cncnc2-c2ccc(F)cc2)CC1)C1CC1` [Example 277, N-cyclopropyl-1-(4-(4-fluorophenyl)pyrimidin-5-yl)-N-methylpiperidine-4-carboxamide] is 94%; for `O=C(C1CCN(c2cnccc2-n2cc(Cl)cn2)CC1)N1C2COCC1C2` [Example 35, (1-(4-(4-chloro-1H-pyrazol-1-yl)pyridin-3-yl)piperidin-4-yl)(3-oxa-6-azabicyclo[3.1.1]hept-6-yl)methanone] it is 98%; for `O=C(C1CCN(c2cnccc2-n2cc(Br)cn2)CC1)N1CC(F)C1` [Example 319, (1-(4-(4-bromo-1H-pyrazol-1-yl)pyridin-3-yl)piperidin-4-yl) (3-fluoroazetidin-1-yl)methanone] it is 96%.
In the case of `Cc1cnn(-c2ccncc2N2CCC(C(=O)Nc3ccccc3)CC2)c1` [Example 73, 1-(4-(4-methyl-1H-pyrazol-1-yl)pyridin-3-yl)-N-phenylpiperidine-4-carboxamide] it was 97%; in that of `O=C(C1CCN(c2cnccc2-c2ccccn2)CC1)N1CCC(F)(F)C1` [Example 214, (1-(2,4′-bipyridin-3′-yl)piperidin-4-yl) (3,3-difluoropyrrolidin-1-yl)methanone], 89%; in that of `O=C(C1CCN(c2cnccc2-n2cc(C3CC3)cn2)CC1)N1CC[C@H](F)C1` [Example 322, (1-(4-(4-cyclopropyl-1H-pyrazol-1-yl)pyridin-3-yl)piperidin-4-yl)((3S)-3-fluoropyrrolidin-1-yl)methanone], 93%.
With `CO[C@@H]1CCN(C(=O)C2CCN(c3cnccc3-n3cc(Cl)cn3)CC2)C1` [Example 300, (1-(4-(4-chloro-1H-pyrazol-1-yl)pyridin-3-yl)piperidin-4-yl)((3R)-3-methoxypyrrolidin-1-yl)methanone], the inhibition at 1 µM came to 83%.
With `O=C(NC1CC1)C1CCN(c2cncnc2-c2ccc(F)cc2)CC1` [Example 193, N-cyclopropyl-1-(4-(4-fluorophenyl)pyrimidin-5-yl)piperidine-4-carboxamide], the inhibition at 1 µM was 90%.
The figure for `O=C(C1CCN(c2cnccc2-n2cc(Cl)cn2)CC1)N1CC[C@@H](F)C1` [Example 285, (1-(4-(4-chloro-1H-pyrazol-1-yl)pyridin-3-yl)piperidin-4-yl)((3R)-3-fluoropyrrolidin-1-yl)methanone] is 82%.
In the case of `O=C(NC1CCOCC1)C1CCN(c2cnccc2-n2cc(Cl)cn2)CC1(F)F` (centres unmarked) [Example 79, 1-(4-(4-chloro-1H-pyrazol-1-yl)pyridin-3-yl)-3,3-difluoro-N-(tetrahydro-2H-pyran-4-yl)piperidine-4-carboxamide] it was 93%; in that of `O=C(C1CCN(c2cnccc2-n2cc(Cl)cn2)CC1)N1CC[C@H](F)C1` [Example 284, (1-(4-(4-chloro-1H-pyrazol-1-yl)pyridin-3-yl)piperidin-4-yl)((3S)-3-fluoropyrrolidin-1-yl)methanone], 80%; in that of `N#C[C@H]1CC(F)(F)CN1C(=O)C1CCN(c2cnccc2-c2ccccn2)CC1` [Example 143, (2R)-1-((1-(2,4′-bipyridin-3′-yl)piperidin-4-yl)carbonyl)-4,4-difluoropyrrolidine-2-carbonitrile], 98%.
In the case of `CN(C(=O)C1CCN(c2cncnc2-c2ccc(F)cc2)CC1)C1CCOCC1` [Example 288, 1-(4-(4-fluorophenyl)pyrimidin-5-yl)-N-methyl-N-(tetrahydro-2H-pyran-4-yl)piperidine-4-carboxamide] it was 84%; in that of `Cc1cnn(-c2ccncc2N2CCC(C(=O)N(C)C3CC3)CC2)c1` [Example 86, N-cyclopropyl-N-methyl-1-(4-(4-methyl-1H-pyrazol-1-yl)pyridin-3-yl)piperidine-4-carboxamide], 98%.
Consider `CCNC(=O)N1CCN(c2cncnc2-c2ccccc2)CC1` [Example 176, N-ethyl-4-(4-phenylpyrimidin-5-yl)piperazine-1-carboxamide], for which the inhibition at 1 µM was 82%.
In the case of `O=C(N1CCN(c2cnccc2-c2ccccc2)CC1)N1CCC1c1ccc(F)cc1` (centres unmarked) [Example 190, (2-(4-fluorophenyl)azetidin-1-yl) (4-(4-phenylpyridin-3-yl)piperazin-1-yl)methanone] it was 87%.
In the case of `CO[C@H]1CCN(C(=O)C2CCN(c3cncnc3-c3ccc(F)cc3)CC2)C1` [Example 303, (1-(4-(4-fluorophenyl)pyrimidin-5-yl)piperidin-4-yl)((3S)-3-methoxypyrrolidin-1-yl)methanone] it was 85%.
In the case of `CN(C(=O)C1CCN(c2cnccc2-n2cc(Cl)cn2)CC1)C1CCOCC1` [Example 54, 1-(4-(4-chloro-1H-pyrazol-1-yl)pyridin-3-yl)-N-methyl-N-(tetrahydro-2H-pyran-4-yl)piperidine-4-carboxamide] it was 99%; in that of `O=C(C1CCN(c2cnccc2-n2cc(Cl)cn2)CC1)N1CC(F)C1` [Example 281, (1-(4-(4-chloro-1H-pyrazol-1-yl)pyridin-3-yl)piperidin-4-yl) (3-fluoroazetidin-1-yl)methanone], 84%.
`N#C[C@H]1CCCN1C(=O)N1CCN(c2cncnc2-c2ccc(F)cc2)CC1` [Example 198, (2R)-1-((4-(4-(4-fluorophenyl)pyrimidin-5-yl)piperazin-1-yl)carbonyl)pyrrolidine-2-carbonitrile]: the inhibition at 1 µM was determined as 90%.
With `CN(Cc1ccccc1)C(=O)N1CCN(c2cncnc2-c2ccccc2)CC1` [Example 298, N-benzyl-N-methyl-4-(4-phenylpyrimidin-5-yl)piperazine-1-carboxamide], the inhibition at 1 µM was determined as 79%.
Take `Cc1ccc(-c2ccncc2N2CCN(C(=O)CC3CC3)CC2)cc1` [Example 148, 2-cyclopropyl-1-(4-(4-(4-methylphenyl)pyridin-3-yl)piperazin-1-yl)ethanone]: the inhibition at 1 µM is 92%.
In the case of `O=C(C1CCN(c2cnccc2-n2cc(C3CC3)cn2)CC1)N1CC(F)C1` [Example 323, (1-(4-(4-cyclopropyl-1H-pyrazol-1-yl)pyridin-3-yl)piperidin-4-yl)(3-fluoroazetidin-1-yl)methanone] it was 93%; in that of `Cc1cnn(-c2ccncc2N2CCN(C(=O)N(CCF)Cc3ccc(F)cc3)CC2)c1` [Example 315, N-(4-fluorobenzyl)-N-(2-fluoroethyl)-4-(4-(4-methyl-1H-pyrazol-1-yl)pyridin-3-yl)piperazine-1-carboxamide], 94%; in that of `Cc1cnn(-c2ccncc2N2CCC(C(=O)N(CCF)C3CCOCC3)CC2)c1` [Example 311, N-(2-fluoroethyl)-1-(4-(4-methyl-1H-pyrazol-1-yl)pyridin-3-yl)-N-(tetrahydro-2H-pyran-4-yl)piperidine-4-carboxamide], 79%.
